Data taken from publication PMC8765781, “A platform of assays for the discovery of anti-Zika small-molecules with activity in a 3D-bioprinted outer-blood-retina model” (PLoS ONE, 2022).
Like-named read-outs stand apart in the source and are kept apart here.

Tests used:
[1] = system: ZIKV-RLuc (Cambodian strain FSS13025); experiment: microbe, parasite or virus in culture; type: cell-based, Zika virus
[2] = Zika virus, Vero, read-out: Log AC50 (M) (converted)

C[C@@H]1CC[C@@]2(OC1)O[C@H]1C[C@H]3[C@@H]4CC=C5C[C@@H](O[C@@H]6O[C@H](CO)[C@@H](O[C@@H]7O[C@@H](C)[C@H](O)[C@@H](O)[C@H]7O)[C@H](O)[C@H]6O[C@@H]6O[C@@H](C)[C@H](O)[C@@H](O)[C@H]6O)CC[C@]5(C)[C@H]4CC[C@]3(C)[C@H]1[C@@H]2C [NCGC00346600-01]
CC-v2 (curve class classification v2 of the dose response curve) [1]: -1.1
Efficacy (difference between neutral response and maximum compound response) [1]: -96.499
Max Resp (difference between neutral response and compound response for highest compound concentration) [1]: -99.01
AC50 ([1]; Zika virus, Vero): 3.29e-06 M
AC50 [1, 2]: 3.29e-06 M
AC50 (Vero cells): 3.29 µM
Log AC50 (M) (Vero cells): -5.4827 M

O=C(O)C1=CO[C@@H](O[C@@H]2O[C@H](CO)[C@@H](O)[C@H](O)[C@H]2O)[C@@H]2C(CO)=CC[C@H]12 [NCGC00346663-03]
CC-v2 (curve class classification v2 of the dose response curve) [1]: -3
Efficacy (difference between neutral response and maximum compound response) [1]: -105.712
Max Resp (difference between neutral response and compound response for highest compound concentration) [1]: -86.968
AC50 ([1]; Zika virus, Vero): 2.56e-05 M
AC50 [1, 2]: 2.56e-05 M
AC50 (Vero cells): 25.6 µM
Log AC50 (M) (Vero cells): -4.5925 M

CC(C)c1cc(-c2n[nH]c(=O)n2-c2ccc3c(ccn3C)c2)c(O)cc1O [NCGC00346678-01]
CC-v2 (curve class classification v2 of the dose response curve) [1]: -2.2
Efficacy (difference between neutral response and maximum compound response) [1]: -44.79
Max Resp (difference between neutral response and compound response for highest compound concentration) [1]: -44.962
AC50 ([1]; Zika virus, Vero): 8.27e-06 M
AC50 [1, 2]: 8.27e-06 M
AC50 (Vero cells): 8.27 µM
Log AC50 (M) (Vero cells): -5.0827 M

CC(C)c1cc(-c2n[nH]c(=O)n2-c2ccc3c(ccn3C)c2)c(O)cc1O [NCGC00346678-04]
AC50 [1]: 9.28e-06 M
CC-v2 (curve class classification v2 of the dose response curve) [1]: -2.2
Efficacy (difference between neutral response and maximum compound response) [1]: -65.758
Log AC50 (M) [1]: -5.0327
Max Resp (difference between neutral response and compound response for highest compound concentration) [1]: -62.389
AC50 (Vero cells): 9.28 µM
Log AC50 (M) (Vero cells): -5.0327 M

CNC(=O)c1cccc(-c2ccc3c(N4CCOC[C@@H]4C)nc(N4CCOC[C@@H]4C)nc3n2)c1 [NCGC00346698-01]
CC-v2 (curve class classification v2 of the dose response curve) [1]: -2.2
Efficacy (difference between neutral response and maximum compound response) [1]: -76.837
Max Resp (difference between neutral response and compound response for highest compound concentration) [1]: -71.465
AC50 ([1]; Zika virus, Vero): 1.65e-05 M
AC50 [1, 2]: 1.65e-05 M
AC50 (Vero cells): 16.5 µM
Log AC50 (M) (Vero cells): -4.7827 M

CCN(CC)Cc1ccc2cc(COC(=O)Nc3ccc(C(=O)NO)cc3)ccc2c1 [NCGC00346743-01]
CC-v2 (curve class classification v2 of the dose response curve) [1]: -1.2
Efficacy (difference between neutral response and maximum compound response) [1]: -68.967
Max Resp (difference between neutral response and compound response for highest compound concentration) [1]: -98.985
AC50 ([1]; Zika virus, Vero): 2.61e-06 M
AC50 [1, 2]: 2.61e-06 M
AC50 (Vero cells): 2.61 µM
Log AC50 (M) (Vero cells): -5.5827 M

COc1cc(C(=O)NC2CCN(C)CC2)ccc1Nc1ncc2c(n1)N(C1CCCC1)CCC(=O)N2C(C)C [NCGC00346965-01]
CC-v2 (curve class classification v2 of the dose response curve) [1]: -2.4
Efficacy (difference between neutral response and maximum compound response) [1]: -47.886
Max Resp (difference between neutral response and compound response for highest compound concentration) [1]: -47.265
AC50 ([1]; Zika virus, Vero): 1.31e-05 M
AC50 [1, 2]: 1.31e-05 M
AC50 (Vero cells): 13.1 µM
Log AC50 (M) (Vero cells): -4.8827 M

CCOC(=O)N1CCN(/[N+]([O-])=N/Oc2ccc([N+](=O)[O-])cc2C#N)CC1 [NCGC00346969-01]
CC-v2 (curve class classification v2 of the dose response curve) [1]: -1.1
Efficacy (difference between neutral response and maximum compound response) [1]: -94.201
Max Resp (difference between neutral response and compound response for highest compound concentration) [1]: -99.104
AC50 ([1]; Zika virus, Vero): 3.29e-06 M
AC50 [1, 2]: 3.29e-06 M
AC50 (Vero cells): 3.29 µM
Log AC50 (M) (Vero cells): -5.4827 M

C=C1[C@@H](O)[C@]2(O)OC[C@]34C2[C@]2(C)C(C[C@H]3OC(=O)[C@H](O)[C@@]14O)C(C)=CC(=O)[C@H]2O (stereo partly shown) [NCGC00347491-02]
CC-v2 (curve class classification v2 of the dose response curve) [1]: -2.2
Efficacy (difference between neutral response and maximum compound response) [1]: -33.078
Max Resp (difference between neutral response and compound response for highest compound concentration) [1]: -33.995
AC50 ([1]; Zika virus, Vero): 7.23e-06 M
AC50 [1, 2]: 7.23e-06 M
AC50 (Vero cells): 7.23 µM
Log AC50 (M) (Vero cells): -5.1408 M

CC(C)C(=O)O[C@H]1[C@@H]2[C@H](C)C(=O)O[C@@H]2C[C@@H](C)[C@@H]2C=CC(=O)[C@]21C [NCGC00347562-02]
CC-v2 (curve class classification v2 of the dose response curve) [1]: -3
Efficacy (difference between neutral response and maximum compound response) [1]: -106.49
Max Resp (difference between neutral response and compound response for highest compound concentration) [1]: -96.985
AC50 ([1]; Zika virus, Vero): 2.28e-05 M
AC50 [1, 2]: 2.28e-05 M
AC50 (Vero cells): 22.8 µM
Log AC50 (M) (Vero cells): -4.6425 M

C=C(C)C1Cc2c(cc(O)c3c2OC2COc4cc(OC)c(OC)cc4C2(O)C3=O)O1 (stereo not shown) [NCGC00347649-02]
CC-v2 (curve class classification v2 of the dose response curve) [1]: -1.1
Efficacy (difference between neutral response and maximum compound response) [1]: -91.85
Max Resp (difference between neutral response and compound response for highest compound concentration) [1]: -97.372
AC50 ([1]; Zika virus, Vero): 9.28e-08 M
AC50 [1, 2]: 9.27e-08 M
AC50 (Vero cells): 0.0927 µM
